No end group written: not given here.
Legend:
Assay type in all cases: cell-based
Pseudomonas syringae = assay: Antibacterial activity, phytopathogenic bacteria; details: same protocol
Experimental: (§1) Pure each strain of bacteria used (E. coli; M. luteus), an isolated […] is suspended in 10 ml of DIFCO PB medium (Poor Broth, Luria Bertani medium free of yeast extract) and incubated at 30° C. overnight with slow stirring.
(§2) The bacteria to be tested are brought to an optical density at 600 nm of 0.001 in fresh culture medium. 10 μl of each fraction is deposited in microtitration plates in the presence of 100 μl of the bacterial suspension. After incubation for 24 hours at 25° C., the growth is evaluated by measuring the absorbance at 600 nm using a microtitration plate reader.
(§3) Using the same protocol but with phytopathogenic bacteria, the following results are obtained: […]

[1] = tested on: Xanthomonas campestris pv campestris; assay: Antibacterial activity, phytopathogenic bacteria; details: same protocol
Experimental: as §1, §2, §3

[2] = tested on: Xanthomonas vesicatoria B229RI; assay: Antibacterial activity, phytopathogenic bacteria; details: same protocol
Experimental: as §1, §2, §3

[3] = tested on: Xanthomonas vesicatoria 687.3; assay: Antibacterial activity, phytopathogenic bacteria; details: same protocol
Experimental: as §1, §2, §3

[4] = tested on: Pseudomonas syringae pv syringae; assay: Antibacterial activity, phytopathogenic bacteria; details: same protocol
Experimental: as §1, §2, §3

Xanthomonas phaseolica = assay: Antibacterial activity, phytopathogenic bacteria; details: same protocol
Experimental: as §1, §2, §3

Pseudomonas valerianella = assay: Antibacterial activity, phytopathogenic bacteria; details: same protocol
Experimental: as §1, §2, §3

Pseudomonas maculicola = assay: Antibacterial activity, phytopathogenic bacteria; details: same protocol
Experimental: as §1, §2, §3

Pseudomonas syr phaseoli = assay: Antibacterial activity, phytopathogenic bacteria; details: same protocol
Experimental: as §1, §2, §3

[5] = tested on: Clavibacter michiganensis; assay: Antibacterial activity by microspectrophotometry
Experimental: as §1, §2, §3

porcine red blood cells = assay: Hemolytic test; details: synthetic molecule
Experimental: (§4) All of the antibacterial and hemolytic tests are carried out with the synthetic molecule.

bovine red blood cells = assay: Hemolytic test; details: synthetic molecule
Experimental: as §4

Staphylococcus aureus = assay: Antibacterial activity by microspectrophotometry; details: Gram +, 24 hours at 25° C., absorbance at 600 nm
Escherichia coli D31 = assay: Antibacterial activity by microspectrophotometry; details: Escherichia coli D31, Gram -; 24 hours at 25° C., absorbance at 600 nm
Experimental: as §1, §2

Escherichia coli D22 = assay: Antibacterial activity by microspectrophotometry; details: Escherichia coli D22, Gram -; 24 hours at 25° C., absorbance at 600 nm
Experimental: as §1, §2

Micrococcus luteus = assay: Antibacterial activity by microspectrophotometry
Experimental: as §1, §2

Salmonella typhimurium = assay: Antibacterial activity by microspectrophotometry; details: Gram -, 24 hours at 25° C., absorbance at 600 nm
[6] = tested on: Fusarium oxysporum meloni; assay: Antifungal activity, phytopathogenic fungi
Experimental: as §1, §2
(§5) Using the same protocol but with phytopathogenic fungi, the following results are obtained: […]

Verticilium toreillis = assay: Antifungal activity, phytopathogenic fungi
Experimental: as §1, §2, §5

Alternaria dauci = assay: Antifungal activity, phytopathogenic fungi
Experimental: as §1, §2, §5

Stemphyllium = assay: Antifungal activity, phytopathogenic fungi
Experimental: as §1, §2, §5

Botrytis petuniae = assay: Antifungal activity, phytopathogenic fungi
Experimental: as §1, §2, §5

Fusarium oxysporum L = assay: Antifungal activity, phytopathogenic fungi
Experimental: as §1, §2, §5

Aerococcus viridans = assay: Antibacterial activity by microspectrophotometry; details: Gram +, 24 hours at 25° C., absorbance at 600 nm
Bacillus subtilis = assay: Antibacterial activity by microspectrophotometry; details: Gram +, 24 hours at 25° C., absorbance at 600 nm
[7] = medium supplemented with 1 mM CaCl2 and 20 mM KCl

Substance: androctonine (RSVCRQIKICRRRGGCYYLCTNRPY; disulfide (positions not given here)) [peptide from scorpion Androctonus australis hemolymph; 4 cysteine residues in two intramolecular disulfide bridges; tests done with the synthetic molecule]
- MIC (Pseudomonas syringae): 0.5 to 1 µM
- MIC [1]: 3 to 6 µM
- MIC [2]: 1.5 to 3 µM
- MIC [3]: 1.5 to 3 µM
- MIC [4]: 15 to 22 µM
- MIC (Xanthomonas phaseolica): 1 to 2 µM
- MIC (Pseudomonas valerianella): 15 to 22 µM
- MIC (Pseudomonas maculicola): 3 to 6 µM
- MIC (Pseudomonas syr phaseoli): 2 to 4 µM
- MIC ([5]; Clavibacter michi ganensis, Gram +, Table 1, 24 hours at 25° C., absorbance at 600 nm): 6 to 15 µM
- MIC ([5]; Clavibacter michiganensis, Table 2, phytopathogenic bacteria, same protocol): 6 to 15 µM
- lytic effect on red blood cells (porcine red blood cells): no lytic effect
- lytic effect on red blood cells (bovine red blood cells): no lytic effect
- MIC (Staphylococcus aureus): 15 to 30 µM
- MIC (Escherichia coli D31): 3 to 6 µM
- MIC (Escherichia coli D22): > 30 µM
- MIC (Micrococcus luteus; Micrococcus luteus, Gram +, 24 hours at 25° C., absorbance at 600 nm): 0.6 to 1.5 µM
- antibacterial activity of synthetic molecule compared with native molecule (Micrococcus luteus; bacterium Micrococcus liteus, synthetic (FMOC, renatured) vs native): same antibacterial activity as the native molecule
- MIC (Salmonella typhimurium): 3 to 6 µM
- MIC without salts [6]: 2 to 4 µM
- MIC with salts (Verticilium toreillis; [7]): > 32 µM
- MIC without salts (Verticilium toreillis; without salts): 2 to 4 µM
- MIC with salts (Alternaria dauci; [7]): 16 to 32 µM
- MIC without salts (Alternaria dauci; without salts): 4.1 to 8.2 µM
- MIC with salts (Stemphyllium; [7]): 16 to 32 µM
- MIC without salts (Stemphyllium; without salts): 4 to 8 µM
- MIC with salts (Botrytis petuniae; [7]): > 32 µM
- MIC without salts (Botrytis petuniae; without salts): 4 to 8 µM
- MIC with salts (Fusarium oxysporum L; [7]): > 32 µM
- MIC without salts (Fusarium oxysporum L; without salts): 2 to 4 µM
- MIC (Aerococcus viridans): 0.3 to 0.6 µM
- MIC (Bacillus subtilis): 1.5 to 3.0 µM

Reference: patent US6127336A, “Antibacterial and antifungal peptide” (priority 1996, dated 2000)
